From patent US8835467B2, “SIR2 regulation” (Albert Einstein College of Medicine of Yeshiva University, priority 2003, dated 2014)
Several values for one entry are separate records, joined by “and”; a condition that tells them apart may be missing. Equal entries are not always repeated.

What was measured:
Bacterial SIR2Af2 [1] = biological target: T1, Bacterial SIR2Af2 (Archaeoglobus fulgidus, UniProt O30124); test: SIR2 deacetylation assay (p53 peptide, HPLC of ADPR and 3′-O-acetyl-ADPR); type: biochemical, Archeaglobus fulgidus
T1 construct: made in house
T1 sequence (O30124 1-253): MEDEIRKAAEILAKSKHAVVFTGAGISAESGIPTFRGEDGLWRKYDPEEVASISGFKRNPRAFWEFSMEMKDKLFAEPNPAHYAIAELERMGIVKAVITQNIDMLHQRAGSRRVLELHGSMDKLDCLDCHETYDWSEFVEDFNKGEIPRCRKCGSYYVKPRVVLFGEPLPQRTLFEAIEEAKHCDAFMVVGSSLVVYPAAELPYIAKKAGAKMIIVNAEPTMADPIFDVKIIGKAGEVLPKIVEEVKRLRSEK
Method: (§1) After 2 hours, aliquots of 10 μL removed at 0, 30, 60, 90 and 120 min. Each aliquot was combined with 50 μL 50 mM ammonium acetate pH 5.0 to quench and assayed by HPLC for deacetylation products and NAD^+. The chromatograms (260 nm) were obtained using 50 mM ammonium acetate pH 5.0 as eluant on a semi-preparative Waters C-18 column (2.0 mL/min flow rate). Peaks for ADPR and 3′-O-Acetyl-ADPR were quantified by integration. The peak for NAD^+ was collected and radiation counted. […] Plots of deacetylation rate versus nicotinamide were fit to the equations described in the text.
Reactions were as above but base reactions contained 5 mM of pyrazinamide, isonicotinamide, thionicotinamide, or benzamide. Reactions were carried out (2 hours for AF2 and yeast enzymes and 3 hours for mouse enzyme) at 37° C. and quenched by addition of 80 μL 50 mM ammonium acetate pH 5.0. Product formation was quantified by HPLC. Thionicotinamide-NAD^+ was synthesized by CD38. Rates were compared with controls lacking added base.

[2] = biological target: T2, Mouse SIR2 enzyme (SIR2α) (Mus musculus, UniProt Q923E4); test: as above; type: biochemical
T2 construct: purchased Upstate Group
T2 sequence (Q923E4 1-737): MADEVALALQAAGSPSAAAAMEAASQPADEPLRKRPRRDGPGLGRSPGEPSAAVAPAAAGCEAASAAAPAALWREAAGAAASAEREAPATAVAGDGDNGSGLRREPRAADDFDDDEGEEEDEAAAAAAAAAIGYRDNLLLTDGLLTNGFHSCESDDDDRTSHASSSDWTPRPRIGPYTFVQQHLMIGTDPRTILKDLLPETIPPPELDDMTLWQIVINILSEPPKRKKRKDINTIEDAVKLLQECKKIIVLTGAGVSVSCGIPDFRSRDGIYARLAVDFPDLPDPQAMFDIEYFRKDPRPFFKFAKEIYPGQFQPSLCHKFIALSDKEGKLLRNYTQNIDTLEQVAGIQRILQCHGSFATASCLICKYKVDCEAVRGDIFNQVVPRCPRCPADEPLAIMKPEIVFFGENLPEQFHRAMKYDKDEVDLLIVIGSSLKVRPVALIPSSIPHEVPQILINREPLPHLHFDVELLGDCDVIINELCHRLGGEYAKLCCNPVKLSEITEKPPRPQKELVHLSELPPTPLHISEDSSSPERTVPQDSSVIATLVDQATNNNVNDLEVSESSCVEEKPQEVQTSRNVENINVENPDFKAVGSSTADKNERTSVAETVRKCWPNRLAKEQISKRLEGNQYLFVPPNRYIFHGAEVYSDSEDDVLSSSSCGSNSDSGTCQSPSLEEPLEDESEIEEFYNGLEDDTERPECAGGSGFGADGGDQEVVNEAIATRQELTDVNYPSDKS
Method: (§2) After 2 hours, aliquots of 10 μL removed at 0, 30, 60, 90 and 120 min. Each aliquot was combined with 50 μL 50 mM ammonium acetate pH 5.0 to quench and assayed by HPLC for deacetylation products and NAD^+. The chromatograms (260 nm) were obtained using 50 mM ammonium acetate pH 5.0 as eluant on a semi-preparative Waters C-18 column (2.0 mL/min flow rate). Peaks for ADPR and 3′-O-Acetyl-ADPR were quantified by integration. The peak for NAD^+ was collected and radiation counted.
(§3) Reactions were as above but base reactions contained 5 mM of pyrazinamide, isonicotinamide, thionicotinamide, or benzamide. Reactions were carried out (2 hours for AF2 and yeast enzymes and 3 hours for mouse enzyme) at 37° C. and quenched by addition of 80 μL 50 mM ammonium acetate pH 5.0. Product formation was quantified by HPLC. […] Rates were compared with controls lacking added base.

Yeast SIR2p [3] = biological target: T3, Yeast SIR2p (Saccharomyces cerevisiae, UniProt P06700); test: as above; type: biochemical
T3 construct: made in house
T3 sequence (P06700 whole entry): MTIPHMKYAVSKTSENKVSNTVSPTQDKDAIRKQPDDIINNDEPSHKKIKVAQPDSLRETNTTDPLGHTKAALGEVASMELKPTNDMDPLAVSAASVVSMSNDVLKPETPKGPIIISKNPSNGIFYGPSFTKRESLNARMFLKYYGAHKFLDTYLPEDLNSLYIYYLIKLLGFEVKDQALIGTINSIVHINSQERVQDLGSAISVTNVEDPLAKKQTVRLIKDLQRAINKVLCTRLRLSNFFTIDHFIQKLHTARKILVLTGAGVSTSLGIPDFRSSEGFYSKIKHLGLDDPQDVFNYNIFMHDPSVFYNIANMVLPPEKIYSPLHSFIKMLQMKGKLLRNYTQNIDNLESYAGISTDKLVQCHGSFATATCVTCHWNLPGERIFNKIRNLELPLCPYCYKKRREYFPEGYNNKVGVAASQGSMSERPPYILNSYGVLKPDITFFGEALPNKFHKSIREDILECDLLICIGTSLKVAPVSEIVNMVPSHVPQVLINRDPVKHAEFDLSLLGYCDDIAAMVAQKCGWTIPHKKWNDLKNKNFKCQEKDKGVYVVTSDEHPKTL
Method: as §2, §3

Bacterial SIR2Af2 [4] = biological target: T1, Bacterial SIR2Af2; test: SIR2 nicotinamide base-exchange assay (p53 peptide, HPLC/14C); type: biochemical, Archeaglobus fulgidus; set-up: kcat (exchange): dose or concentration left out as unconfirmed
Method: as §1

[5] = biological target: T2, Mouse SIR2 enzyme (SIR2α); test: as above; type: biochemical; set-up: kcat (exchange): dose or concentration left out as unconfirmed
Method: as §2

Yeast SIR2p [6] = biological target: T3, Yeast SIR2p; test: as above; type: biochemical; set-up: kcat (exchange): dose or concentration left out as unconfirmed
Method: as §2

Yeast Sir2 = Yeast Sir2 (Saccharomyces cerevisiae, UniProt P06700); test: Sir2 catalyzed deacetylation of H4 N-terminal peptide; type: biochemical; conditions: Ki, apparent nicotinamide inhibition constant (deacetylation)
Sequence of Yeast Sir2 (P06700 whole entry): as above
Method: Measurements were performed by methods described in Sauve and Schramm (2003) with the H4N-terminal peptide (AGG(AcK)GG(AcK)GMG(AcK)VGA(AcK)RHSC) (Imai et al., 2000) as substrate.

[7] = test system: Sir2-dependent transcriptional silencing at the silent mating-type loci (HMR, HML); test: Silent mating-type locus reporter silencing, spot assay; type: cell-based, yeast
Method: The photographs were taken after 2 to 3 days incubation. […] Isogenic strains UCC4562 (DOT1) and UCC4554 (dot1Δ) (Singer et al., 1998) are shown in each panel (top and bottom rows, respectively). […] The phenotype of strain CCFY10028 (top row) is compared to an isogenic sir2 derivative (bottom row). The sir2 deletion strain was generated by PCR-mediated gene disruption using a Nat-MX selectable marker (Tong et al., 2004).
The deletion strains were generated by PCR-mediated gene disruption using a Nat-MX selectable marker (Tong et al., 2004). Silencing at TEL-VR::URA3 is reported by survival on FOA-containing media and at HMR::TRP1 is detected by reduced growth on media lacking tryptophan.
The effect of isonicotinamide on Sir2 activity at the silent mating-type loci was measured in an HMR: TRP1 strain by growth on medium lacking tryptophan (FIG. 8b). Silencing of TRP1 decreases growth on Trp^− media.

Sir2p (yeast) [8] = biological target: T4, Sir2p (yeast) (Saccharomyces cerevisiae, UniProt P06700); test: HPLC assay of base exchange, histone H4 substrate (Example 3); type: biochemical; conditions: for % rate (base exchange) / Cpm/sample (radioactivity in NAD peak): Yeast enzyme
T4 sequence (P06700 whole entry): as above

Af2Sir2 (archaean) [9] = biological target: T5, Af2Sir2 (archaean) (Archaeoglobus fulgidus, UniProt O30124); test: HPLC assay of deacetylation, histone H4 substrate (Example 3); type: biochemical; conditions: Archaea enzyme
T5 sequence (O30124 1-253): T1 sequence (O30124 1-253)

Sir2p (yeast) [10] = biological target: T4, Sir2p (yeast); test: as above; type: biochemical; conditions: Yeast enzyme
Af2Sir2 (archaean) [11] = biological target: T5, Af2Sir2 (archaean); test: biochemical
Method: (§4) NAD^+ in 50 μL 50 mM potassium phosphate pH 7.0. Each solution also contained a variable amount of 2-Fluoronicotinamide with concentrations of 0, 5, 10, 20, 40 and 80 mM of the compound. […] Deacetylation was assayed by integration of the peaks for AADPR and ADPR in reaction mixtures.

Af2Sir2 (archaean) [12] = biological target: T5, Af2Sir2 (archaean); test: HPLC assay of base exchange, histone H4 substrate (Example 3); conditions: Archaea enzyme
Method: as §4

NC(=O)c1cnccn1 [Pyrazinamide]
inhibition at 5000 µM (Bacterial SIR2Af2 [1]): 4%
inhibition at 5000 µM [2]: 1%
inhibition at 5000 µM (Yeast SIR2p [3]): 1%

NC(=O)c1cccnc1 [nicotinamide]
Ki (Bacterial SIR2Af2 [4]): > 8000 µM
kcat (exchange) (Bacterial SIR2Af2 [4]; bacterial enzyme, from nicotinamide saturation curves, pH 7.8): 0.00583 ± 0.00067 s⁻¹
Ki [5]: > 8000 µM
kcat (exchange) ([5]; mouse enzyme, from nicotinamide saturation curves, pH 7.8): 0.05 ± 0.0033 s⁻¹
Ki (Yeast SIR2p [6]): > 8000 µM
kcat (exchange) (Yeast SIR2p [6]; yeast enzyme, from nicotinamide saturation curves, pH 7.8): 0.0967 ± 0.0067 s⁻¹
Ki (Bacterial SIR2Af2 [1]): 26 ± 4 µM
intermediate returned to acetylated protein (Bacterial SIR2Af2 [1]; bacterial SIR2, saturation of the nicotinamide site): 21%
reduction of deacetylation rate by nicotinamide (Bacterial SIR2Af2 [1]; bacterial enzyme, high (>10 Ki) nicotinamide): 21%
kinh (deacetylation), residual deacetylation rate (Bacterial SIR2Af2 [1]; bacterial enzyme, in the presence of 2 mM nicotinamide): 1.4 ± 0.2 min⁻¹
Ki [2]: 160 µM
intermediate returned to acetylated protein ([2]; mouse SIR2, saturation of the nicotinamide site): 95%
inhibition of deacetylation by nicotinamide ([2]; mouse enzyme, high nicotinamide concentrations): > 95% and 95%
kinh (deacetylation), residual deacetylation rate ([2]; mouse enzyme, in the presence of 2 mM nicotinamide): 0.014 ± 0.002 min⁻¹
Ki (Yeast SIR2p [3]): 120 ± 25 µM
intermediate returned to acetylated protein (Yeast SIR2p [3]; yeast SIR2, saturation of the nicotinamide site): 65%
reduction of deacetylation rate by nicotinamide (Yeast SIR2p [3]; yeast enzyme, high (millimolar) nicotinamide): 65%
kinh (deacetylation), residual deacetylation rate (Yeast SIR2p [3]; yeast enzyme, in the presence of 2 mM nicotinamide): 0.60 ± 0.08 min⁻¹
Ki (Yeast Sir2; 0 mM isonicotinamide): 100 µM
Ki (Yeast Sir2; 60 mM isonicotinamide): 180 µM
Ki (Yeast Sir2; 100 mM isonicotinamide): 330 µM
growth phenotype of isogenic sir2Δ strain ([7]; HMR::TRP1, Trp− medium): Neither compound altered the growth phenotype
growth on Trp− medium ([7]; HMR::TRP1 strain, 5 mM nicotinamide): increased growth

NC(=O)c1ccccc1 [Benzamide]
inhibition at 5000 µM (Bacterial SIR2Af2 [1]): 5%
inhibition at 5000 µM [2]: 44%
inhibition at 5000 µM (Yeast SIR2p [3]): 0%

NC(=S)c1cccnc1 [Thionicotinamide]
inhibition at 5000 µM (Bacterial SIR2Af2 [1]): 4%
inhibition at 5000 µM [2]: 16%
inhibition at 5000 µM (Yeast SIR2p [3]): 15%

NC(=O)c1cccnc1F
Ki (Sir2p (yeast) [8]): 20000 µM
% rate (base exchange) (Sir2p (yeast) [8]; 5 mM): 76%
Cpm/sample (radioactivity in NAD peak) (Sir2p (yeast) [8]; 5 mM): 24,500 Cpm/sample
% rate (base exchange) (Sir2p (yeast) [8]; 10 mM): 58%
Cpm/sample (radioactivity in NAD peak) (Sir2p (yeast) [8]; 10 mM): 18,800 Cpm/sample
% rate (base exchange) (Sir2p (yeast) [8]; 20 mM): 47%
Cpm/sample (radioactivity in NAD peak) (Sir2p (yeast) [8]; 20 mM): 15,200 Cpm/sample
% rate (base exchange) (Sir2p (yeast) [8]; 40 mM): 36%
Cpm/sample (radioactivity in NAD peak) (Sir2p (yeast) [8]; 40 mM): 11,600 Cpm/sample
% rate (base exchange) (Sir2p (yeast) [8]; 80 mM): 28%
Cpm/sample (radioactivity in NAD peak) (Sir2p (yeast) [8]; 80 mM): 9,000 Cpm/sample
% rate (deacetylation) (Af2Sir2 (archaean) [9]; 5 mM): 100%
% rate (deacetylation) (Af2Sir2 (archaean) [9]; 10 mM): 100%
% rate (deacetylation) (Af2Sir2 (archaean) [9]; 20 mM): 100%
% rate (deacetylation) (Af2Sir2 (archaean) [9]; 40 mM): 100%
% rate (deacetylation) (Af2Sir2 (archaean) [9]; 80 mM): 100%
% rate (deacetylation) (Sir2p (yeast) [10]; 5 mM): 100%
% rate (deacetylation) (Sir2p (yeast) [10]; 10 mM): 97%
% rate (deacetylation) (Sir2p (yeast) [10]; 20 mM): 100%
% rate (deacetylation) (Sir2p (yeast) [10]; 40 mM): 95%
% rate (deacetylation) (Sir2p (yeast) [10]; 80 mM): 95%
Ki (Af2Sir2 (archaean) [11]): 43000 µM
% rate (base exchange) (Af2Sir2 (archaean) [12]; 5 mM): 91%
Cpm/sample (radioactivity in NAD peak) (Af2Sir2 (archaean) [12]; 5 mM): 18,200 Cpm/sample
% rate (base exchange) (Af2Sir2 (archaean) [12]; 10 mM): 80%
Cpm/sample (radioactivity in NAD peak) (Af2Sir2 (archaean) [12]; 10 mM): 16,100 Cpm/sample
% rate (base exchange) (Af2Sir2 (archaean) [12]; 20 mM): 73%
Cpm/sample (radioactivity in NAD peak) (Af2Sir2 (archaean) [12]; 20 mM): 14,600 Cpm/sample
% rate (base exchange) (Af2Sir2 (archaean) [12]; 40 mM): 50%
Cpm/sample (radioactivity in NAD peak) (Af2Sir2 (archaean) [12]; 40 mM): 10,300 Cpm/sample
% rate (base exchange) (Af2Sir2 (archaean) [12]; 80 mM): 35%
Cpm/sample (radioactivity in NAD peak) (Af2Sir2 (archaean) [12]; 80 mM): 7,000 Cpm/sample
